# Measured values: patent US7727550B2, “Biologically active native biomatrix composition” (The UAB Research Foundation, priority 2003, dated 2010)
# Tests used:
# [1] = test system: human umbilical vascular endothelial cells (HUVEC); test: HUVEC culture on two-dimensional biomatrix environments; assay type: cell-based; conditions: FGF 15 ng/ml, two-dimensional HuBiogel matrix
# Method: […] The specific morphological changes in the monolayer HUVEC cultures was examined after 72 hrs incubation on each biomatrix environment. HUVECs cultured on plastic or purified collagen I grew poorly (<60% viability). […] Tubular capillary formation is confirmed by cross-sectional electron microscopy showing distinct lumen.
# [2] = test system: HUVEC; test: HUVEC migration and differentiation in three-dimensional HuBiogel disc culture system; assay type: cell-based, human; conditions: FGF 60 ng/ml added day 0, 5 mg/ml HuBiogel disc, 50 um pore size
# Method: Endothelial cells were cultured under standard conditions. On day 0, FGF (60 ng/ml) was added to the culture and incubation continued. At the indicated times, cell morphology was examined and documented. […] There is no differentiation of the cells until the day 5-day 7 time period. After day 7, obvious differentiation as indicated by sprout formation/capillary formation can be seen. […] Such a temporally discrete timing of the activation migration and differentiation steps make the use of this system ideal for studying the biochemical mechanisms involved in each step, as well as isolating potential inhibitors of the mechanisms identified. This time dependent, temporally isolated sequence of events is in contrast to that seen with Matrigel, where differentiation events occur rapidly in the absence of added growth factors and/or growth stimulants.
# [3] = test system: mesenchymal stem cells (MSC); test: Mesenchymal stem cell culture on HuBiogel; assay type: cell-based; conditions: NGF 15 ng/ml
# Method: Other cell type may also be grown on HuBiogel™ matrices, with the above being exemplary in nature only. Theses other cell types include neurons, hepatocytes, sertoli cells and the like. For Example, FIGS. 11A and B show glioma cells cultured on HuBiogel™ containing matrices. […] FIGS. 12A and B show mesenchymal stem cells (MSC) cells cultured on HuBiogel™ in the presence (FIG. 12B) and absence of 15 ng/ml NGF (FIG. 12A).
Substance,HUVEC differentiation on HuBiogel enriched with growth factor [1],"growth factor induced HUVEC activation, migration and differentiation [2]",neuronal differentiation of MSC on HuBiogel [3]
"FGF: fibroblast growth factor, purified angiogenic factor added to HuBiogel",rapid formation of tubule-like structures,"induced a time dependent series of cellular activation, migration and differentiation steps",–
NGF: nerve growth factor,–,–,neuronal differentiation occurred only in the presence of NGF
